Values joined by “and” are separate entries in the source; they are usually repeats but may differ in a detail not shown here. Identical values can stand only once. Marks after values point to notes of the source that are not given here.
Tested on: subjects with type 2 diabetes and nephropathy
Test: Example 2: Phase 2b randomized, double-blind, placebo-controlled 12-week study conducted in Japan
Settings: for Weight, LS Mean Change from Baseline (SE): Week 12; for UACR Change from Baseline LS Mean (SE) / UACR Geometric Mean Change (Percent): baseline to final on-treatment measurement

CCCCN(CCCC)C(=O)CN1C[C@H](c2ccc3c(c2)OCO3)[C@@H](C(=O)O)[C@@H]1c1ccc(OC)cc1 [Atrasentan, (2R,3R,4S)-4-(1,3-benzodioxol-5-yl)-1-[2-(dibutylamino)-2-oxoethyl]-2-(4-methoxyphenyl)pyrrolidine-3-carboxylic acid]
Percentage of Subjects with ≧40% Reduction in Log-Transformed UACR from Baseline to Final Measurement (0.75 mg/day): 31.6%
Percentage of Subjects with ≧50% Reduction in Log-Transformed UACR from Baseline to Final Measurement (0.75 mg/day): 21.1%
Triglycerides, Difference (95% CI) from placebo (0.75 mg/day): −32.9 (−74.44, 8.66) mg/dL
Triglycerides, Final On-Treatment Visit Mean (SD) (0.75 mg/day): 148.1 (64.63) mg/dL
Triglycerides, LS Mean Change from Baseline (SE) (0.75 mg/day): −28.8 (50.42) mg/dL
Weight, Difference (95% CI) from placebo (0.75 mg/day): 0.1 (−1.13, 1.36) kg
Weight, Final On-Treatment Visit Mean (SD) (0.75 mg/day): 69.4 (13.26) kg
fatigue leading to discontinuation (0.75 mg/day): 1.7%
geometric mean reduction in UACR, baseline to final on-treatment measurement (0.75 mg/day): 31.44%
incidence of peripheral edema (0.75 mg/day): 21.1%
mean (non-ambulatory) diastolic blood pressure change from baseline to last on-treatment visit (0.75 mg/day): −5.74 mmHg
mean ambulatory diastolic blood pressure change from baseline to Week 10 (0.75 mg/day): −6.0 mmHg
mean ambulatory systolic blood pressure change from baseline to Week 10 (0.75 mg/day): −5.1 mmHg
mean duration of edema (0.75 mg/day): 38.2 days
peripheral edema leading to discontinuation (0.75 mg/day): 3.4%
subjects discontinued from the study (0.75 mg/day): 10.5%
subjects who discontinued study drug because of adverse events (0.75 mg/day): 5.3%
UACR Between-group Comparison Difference (95% CI) (0.75 mg/day vs placebo): −0.41 (−0.69, −0.13)
mean eGFR, difference between atrasentan and placebo (0.75 mg/day, Week 10): statistically significant
Weight, LS Mean Change from Baseline (SE) (0.75 mg/day): 0.2 (0.45) kg
UACR Change from Baseline LS Mean (SE) (0.75 mg/day): −0.38 (0.10) log mg/g creatinine
UACR Geometric Mean Change (Percent) (0.75 mg/day): −31.44%
mean (non-ambulatory) systolic blood pressure change from baseline to last on-treatment visit (0.75 mg/day, increased): 1.93 mmHg
Any adverse event (1.25 mg, N = 19): 14 (73.7) N (%) of Subjects
Any adverse event leading to discontinuation of study drug (1.25 mg, N = 19): 5 (26.3)* N (%) of Subjects
Death (1.25 mg, N = 19): 0 N (%) of Subjects
Fatal adverse event (1.25 mg, N = 19): 0 N (%) of Subjects
Possibly or probably drug-related adverse event (1.25 mg, N = 19): 10 (52.6) N (%) of Subjects
Serious adverse event (1.25 mg, N = 19): 2 (10.5) N (%) of Subjects
Severe adverse event (1.25 mg, N = 19): 1 (5.3) N (%) of Subjects
Cholesterol, Difference (95% CI) from placebo (1.25 mg/day): −25.0 (−41.95, −8.04) mg/dL
Cholesterol, Final On-Treatment Visit Mean (SD) (1.25 mg/day): 169.6 (37.60) mg/dL
Cholesterol, LS Mean Change from Baseline (SE) (1.25 mg/day): −26.9 (5.41) mg/dL
HDL-C, Difference (95% CI) from placebo (1.25 mg/day): −2.3 (−8.24, 3.73) mg/dL
HDL-C, Final On-Treatment Visit Mean (SD) (1.25 mg/day): 46.4 (12.12) mg/dL
HDL-C, LS Mean Change from Baseline (SE) (1.25 mg/day): −4.1 (1.91) mg/dL
Had ≧30% Reduction in UACR and No Edema (no moderate or severe adverse event of edema) (1.25 mg/day): 9 (52.9) Number (%) of Subjects
Hemoglobin, Difference (95% CI) from placebo (1.25 mg/day): −1.14 (−1.773, −0.497) g/dL
Hemoglobin, Final On-Treatment Visit Mean (SD) (1.25 mg/day): 11.67 (2.300) g/dL
LDL-C, Difference (95% CI) from placebo (1.25 mg/day): −19.7 (−34.02, −5.36) mg/dL
LDL-C, Final On-Treatment Visit Mean (SD) (1.25 mg/day): 92.1 (35.00) mg/dL
LDL-C, LS Mean Change from Baseline (SE) (1.25 mg/day): −18.9 (4.57) mg/dL
Percentage of Subjects with ≧30% Reduction in Log-Transformed UACR from Baseline to Final Measurement (1.25 mg/day): 64.7%
Percentage of Subjects with ≧40% Reduction in Log-Transformed UACR from Baseline to Final Measurement (1.25 mg/day): 64.7%
Percentage of Subjects with ≧50% Reduction in Log-Transformed UACR from Baseline to Final Measurement (1.25 mg/day): 52.9%
Triglycerides, Difference (95% CI) from placebo (1.25 mg/day): −16.5 (−58.63, 25.64) mg/dL
Triglycerides, Final On-Treatment Visit Mean (SD) (1.25 mg/day): 160.6 (73.37) mg/dL
Triglycerides, LS Mean Change from Baseline (SE) (1.25 mg/day): −12.4 (68.76) mg/dL
Weight, Difference (95% CI) from placebo (1.25 mg/day): 0.4 (−0.96, 1.68) kg
Weight, Final On-Treatment Visit Mean (SD) (1.25 mg/day): 74.9 (14.51) kg
fatigue leading to discontinuation (1.25 mg/day): 3.1%
geometric mean reduction in UACR, baseline to final on-treatment measurement (1.25 mg/day): 53.76%
incidence of peripheral edema (1.25 mg/day): 31.6%
mean (non-ambulatory) diastolic blood pressure change from baseline to last on-treatment visit (1.25 mg/day): −4.33 mmHg
mean (non-ambulatory) systolic blood pressure change from baseline to last on-treatment visit (1.25 mg/day): −2.93 mmHg
mean ambulatory diastolic blood pressure change from baseline to Week 10 (1.25 mg/day): −6.8 mmHg
mean ambulatory systolic blood pressure change from baseline to Week 10 (1.25 mg/day): −7.2 mmHg
mean duration of edema (1.25 mg/day): 54.8 days
peripheral edema leading to discontinuation (1.25 mg/day): 4.7%
subjects discontinued from the study (1.25 mg/day): 26.3%
subjects who discontinued study drug because of adverse events (1.25 mg/day): 26.3%
UACR Between-group Comparison Difference (95% CI) (1.25 mg/day vs placebo): −0.80 (−1.09, −0.52)
Weight, LS Mean Change from Baseline (SE) (1.25 mg/day): 0.4 kg and 0.4 (0.49) kg
mean eGFR, difference between atrasentan and placebo (1.25 mg/day, Weeks 6, 8, and 10): statistically significant
UACR Change from Baseline LS Mean (SE) (1.25 mg/day): −0.77 (0.10) log mg/g creatinine
UACR Geometric Mean Change (Percent) (1.25 mg/day): −53.76%
mean HDL-C change (all treatment groups, changes not clinically meaningful): decreased slightly
cholesterol and LDL-C, differences from placebo (both atrasentan groups (0.75 mg, 1.25 mg)): statistically significant
hemoglobin relative to placebo (both atrasentan groups, at Week 2 and throughout the study): Statistically significantly mean decreases
